#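 Results reflect a 48-hour exposure of cells in 96-well plates to compound at five concentrations. The concentration for full growth arrest is given as TGI.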
# Experiments:
# Experiment in all cases: NCI anticancer screen, dose series, 48 h
# [1] = system: UACC-62 melanoma
# [2] = system: MDA-MB-231 breast
# [3] = system: SW-620 colon
# [4] = system: T-47D breast
# [5] = system: OVCAR-8 ovarian
# [6] = system: MCF7 breast
# [7] = system: UACC-257 melanoma
# [8] = system: SK-MEL-2 melanoma
# [9] = system: SN12C renal
# [10] = system: A498 renal
Compound,TGI [1] [µM],TGI [2] [µM],TGI [3] [µM],TGI [4] [µM],TGI [5] [µM],TGI [6] [µM],TGI [7] [µM],TGI [8] [µM],TGI [9] [µM],TGI [10] [µM]
COc1c(C(=O)/C(=N/Nc2ccc(C(=O)O)cc2)C(C)=O)c(O)cc2occc12,> 100,> 100,> 100,> 100,> 100,> 100,> 100,> 100,> 100,
CCC(C)C(Nc1c2ccccc2nc2c(C(=O)NCCN(C)C)cccc12)C(=O)O (stereo unspecified),47.4,65.5,> 100,,> 100,> 100,,46.7,> 100,42.4
CC(C#N)(NO)C(C)(C#N)NO (stereo unspecified),> 100,> 100,> 100,> 100,> 100,> 100,> 100,> 100,> 100,> 100
Cc1cccc2c(=O)c3cccc([C@H](C)C(=O)O)c3oc12,> 100,> 100,> 100,> 100,> 100,,> 100,> 100,> 100,> 100
CN(C)CCCNc1ccnc2c([N+](=O)[O-])cccc12,,,37.1,,61.6,,30.9,,28.8,
O=c1cc(NNc2ccccc2)[nH]c(=O)[nH]1,28.5,29.3,,,46.1,26.3,31.7,,49.4,> 100
COc1cc(/C=C/c2ccc(OC)c(OC)c2)oc(=O)c1,> 250,,> 250,,> 11.6,> 250,> 250,> 250,> 250,> 250
COc1ccc(C2CC(c3sc(Nc4ccc(C)cc4)nc3C)=NN2)cc1 (stereo unspecified),> 55.3,,38.2,,35.9,31.7,32.6,30.7,28.9,30.7
CC(O)C(CO)NC(=O)C1CSSCC(NC(=O)C(N)Cc2ccccc2)C(=O)NC(Cc2ccccc2)C(=O)NC(Cc2c[nH]c3ccccc23)C(=O)NC(CCCCN)C(=O)NC(C(C)O)C(=O)N1 (stereo unspecified),> 100,> 100,> 100,> 100,> 100,> 100,> 100,,> 100,> 100
CCN(CC)CCC(=O)/C=C/c1ccc(Cl)c(Cl)c1,,> 10,5.63,5.86,> 10,> 10,> 10,> 10,4.24,
CCCCn1c(=O)[nH]c2c(N)ncnc21,> 100,> 100,> 100,,> 100,> 100,> 100,> 100,> 100,> 100
O=[N+]([O-])c1ccc2c(c1)nc1n2C(c2c(F)cccc2F)SC1 (stereo unspecified),> 100,> 100,> 100,> 100,> 100,> 100,> 100,> 100,> 100,
CCC1(O)C(=O)OCc2c1cc1n(c2=O)Cc2cc3cc4c(cc3nc2-1)OCO4 (stereo unspecified),0.0509,,18.7,> 100,1.29,> 12.8,0.822,2.01,4.1,0.0816
COc1ccc(C2=C(OC(C)=O)c3cccn3-c3ccc(Cl)cc3S2)cc1,> 10,> 10,> 10,> 10,> 10,> 10,> 10,,> 10,
CC1=C(C)C(=O)OC(C(C)(O)C2(O)CC3OC34C3CC(O)C56OC5C=CC(=O)C6(C)C3CCC42C)C1 (stereo unspecified),3.15,13.1,,> 43.3,6.67,> 39.3,4.7,10.8,14.4,7.81
COC(=O)[C@@]12CSC[C@]1(C(=O)OC)N[C@@H](c1ccccc1O)C2,> 100,,> 100,> 100,> 100,> 100,> 100,> 100,> 100,> 100
Cc1[nH]n(-c2nc(-c3ccccc3)cc(=O)[nH]2)c(=O)c1CCO,> 100,> 100,> 100,> 100,> 100,> 100,> 100,> 100,> 100,
NCCCn1c(Cl)nc2ccccc21,> 100,> 100,> 100,> 100,> 100,> 100,,> 100,> 100,> 100
COc1cc(C[C@@]2(C)[C@@H]3CCC[C@H](CO)[C@@]3(C)CC[C@@H]2C)c(Cl)c(OC)c1,28.9,32.3,84.6,22.9,31.7,29.8,35.2,33.5,30,
CC1=NNC(=O)C1C1(C(=O)O)CC(c2c[nH]c3ccccc23)=NC(=S)N1 (stereo unspecified),> 100,81.7,> 100,> 100,> 100,,> 100,81.2,> 100,> 100
COc1ccc(-c2c(C#N)c(N)[nH]c(=S)c2C#N)cc1,> 100,> 100,> 100,,> 100,> 100,> 100,> 100,84.3,> 100
O=C(CC(C(=O)c1ccsc1)c1cccs1)c1ccccc1 (stereo unspecified),> 100,> 100,> 100,33.7,> 100,> 100,> 100,,> 100,> 100
CC1=C[P+](c2ccccc2)(c2ccccc2)c2ccccc2O1,41.1,21.6,> 100,7.79,> 100,> 100,> 100,94.6,5.29,
